In the supplement of paper PMC10307832:

Tests used:
Experiment in all cases: relative viability (nuclei count vs DMSO), 5 days (fraction); higher = more cells survive
XMD14-99 + Crizotinib = compound: CN1CCN(CC1)C2=CC(=C(C=C2)NC3=NC(=C(S3)C(=O)C4=C(C=CC=C4Cl)Cl)N)OC [XMD14-99] + C[C@@H](Oc1cc(-c2cnn(C3CCNCC3)c2)cnc1N)c1c(Cl)ccc(F)c1Cl [Crizotinib] (partner 1 µM)
Method in brief: (§1)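 Values are medians from duplicate plates. Each reflects relative viability, defined as the nuclei count of treated wells over that of vehicle wells. Lung cancer cell lines in 1536-well plates were pin-tool dosed one day after seeding with one drug alone or with a fixed anchor-drug dose plus five library-drug doses (not always all listed) in √10 steps, then fixed, stained and imaged at 4× after 5 days.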

AZD1208 + Trametinib = compound: N[C@@H]1CCCN(c2c(/C=C3\SC(=O)NC3=O)cccc2-c2ccccc2)C1 [AZD1208] + CC(=O)Nc1cccc(-n2c(=O)n(C3CC3)c(=O)c3c(Nc4ccc(I)cc4F)n(C)c(=O)c(C)c32)c1 [Trametinib] (partner 0.02 µM)
Method in brief: as §1

XMD14-99 + Foretinib = compound: CN1CCN(CC1)C2=CC(=C(C=C2)NC3=NC(=C(S3)C(=O)C4=C(C=CC=C4Cl)Cl)N)OC [XMD14-99] + COc1cc2c(Oc3ccc(NC(=O)C4(C(=O)Nc5ccc(F)cc5)CC4)cc3F)ccnc2cc1OCCCN1CCOCC1 [Foretinib] (partner 0.25 µM)
Method in brief: as §1

AZD1208 + Pictilisib = compound: N[C@@H]1CCCN(c2c(/C=C3\SC(=O)NC3=O)cccc2-c2ccccc2)C1 [AZD1208] + CS(=O)(=O)N1CCN(Cc2cc3nc(-c4cccc5[nH]ncc45)nc(N4CCOCC4)c3s2)CC1 [Pictilisib] (partner 1 µM)
Method in brief: as §1

## NCI-H838
XMD14-99 + Crizotinib; first compound 0.08 µM
  relative viability: 0.877
XMD14-99 + Crizotinib; first compound 0.8 µM
  relative viability: 0.798
XMD14-99 + Crizotinib; first compound 2.53 µM
  relative viability: 0.82
XMD14-99 + Crizotinib; first compound 8 µM
  relative viability: 0.557
AZD1208 + Trametinib; first compound 0.08 µM
  relative viability: 0.482
AZD1208 + Trametinib; first compound 0.253 µM
  relative viability: 0.629
AZD1208 + Trametinib; first compound 0.8 µM
  relative viability: 0.448
AZD1208 + Trametinib; first compound 2.53 µM
  relative viability: 0.476
AZD1208 + Trametinib; first compound 8 µM
  relative viability: 0.457
XMD14-99 + Foretinib; first compound 0.08 µM
  relative viability: 1.01
XMD14-99 + Foretinib; first compound 0.8 µM
  relative viability: 0.943
XMD14-99 + Foretinib; first compound 2.53 µM
  relative viability: 0.926
XMD14-99 + Foretinib; first compound 8 µM
  relative viability: 0.887
AZD1208 + Pictilisib; first compound 0.08 µM
  relative viability: 0.374
AZD1208 + Pictilisib; first compound 0.253 µM
  relative viability: 0.427
AZD1208 + Pictilisib; first compound 0.8 µM
  relative viability: 0.343
AZD1208 + Pictilisib; first compound 2.53 µM
  relative viability: 0.378
AZD1208 + Pictilisib; first compound 8 µM
  relative viability: 0.366

## NCI-H1355
XMD14-99 + Crizotinib; first compound 0.08 µM
  relative viability: 1.15
XMD14-99 + Crizotinib; first compound 0.8 µM
  relative viability: 1.11
XMD14-99 + Crizotinib; first compound 2.53 µM
  relative viability: 0.949
XMD14-99 + Crizotinib; first compound 8 µM
  relative viability: 0.879
AZD1208 + Trametinib; first compound 0.08 µM
  relative viability: 0.429
AZD1208 + Trametinib; first compound 0.253 µM
  relative viability: 0.391
AZD1208 + Trametinib; first compound 0.8 µM
  relative viability: 0.416
AZD1208 + Trametinib; first compound 2.53 µM
  relative viability: 0.401
AZD1208 + Trametinib; first compound 8 µM
  relative viability: 0.366
XMD14-99 + Foretinib; first compound 0.08 µM
  relative viability: 0.994
XMD14-99 + Foretinib; first compound 0.8 µM
  relative viability: 0.913
XMD14-99 + Foretinib; first compound 2.53 µM
  relative viability: 0.808
XMD14-99 + Foretinib; first compound 8 µM
  relative viability: 0.706
AZD1208 + Pictilisib; first compound 0.08 µM
  relative viability: 0.419
AZD1208 + Pictilisib; first compound 0.253 µM
  relative viability: 0.39
AZD1208 + Pictilisib; first compound 0.8 µM
  relative viability: 0.35
AZD1208 + Pictilisib; first compound 2.53 µM
  relative viability: 0.349
AZD1208 + Pictilisib; first compound 8 µM
  relative viability: 0.306

## HOP-62
XMD14-99 + Crizotinib; first compound 0.08 µM
  relative viability: 1.06
XMD14-99 + Crizotinib; first compound 0.8 µM
  relative viability: 0.942
XMD14-99 + Crizotinib; first compound 2.53 µM
  relative viability: 0.883
XMD14-99 + Crizotinib; first compound 8 µM
  relative viability: 0.663
AZD1208 + Trametinib; first compound 0.08 µM
  relative viability: 0.372
AZD1208 + Trametinib; first compound 0.253 µM
  relative viability: 0.381
AZD1208 + Trametinib; first compound 0.8 µM
  relative viability: 0.379
AZD1208 + Trametinib; first compound 2.53 µM
  relative viability: 0.377
AZD1208 + Trametinib; first compound 8 µM
  relative viability: 0.322
XMD14-99 + Foretinib; first compound 0.08 µM
  relative viability: 1.01
XMD14-99 + Foretinib; first compound 0.8 µM
  relative viability: 1.05
XMD14-99 + Foretinib; first compound 2.53 µM
  relative viability: 1.02
XMD14-99 + Foretinib; first compound 8 µM
  relative viability: 1.01
AZD1208 + Pictilisib; first compound 0.08 µM
  relative viability: 0.658
AZD1208 + Pictilisib; first compound 0.253 µM
  relative viability: 0.638
AZD1208 + Pictilisib; first compound 0.8 µM
  relative viability: 0.658
AZD1208 + Pictilisib; first compound 2.53 µM
  relative viability: 0.455
AZD1208 + Pictilisib; first compound 8 µM
  relative viability: 0.717

## NCI-H2087
XMD14-99 + Crizotinib; first compound 0.08 µM
  relative viability: 0.773
XMD14-99 + Crizotinib; first compound 0.8 µM
  relative viability: 0.896
XMD14-99 + Crizotinib; first compound 2.53 µM
  relative viability: 0.632
XMD14-99 + Crizotinib; first compound 8 µM
  relative viability: 0.463
AZD1208 + Trametinib; first compound 0.08 µM
  relative viability: 0.219
AZD1208 + Trametinib; first compound 0.253 µM
  relative viability: 0.167
AZD1208 + Trametinib; first compound 0.8 µM
  relative viability: 0.159
AZD1208 + Trametinib; first compound 2.53 µM
  relative viability: 0.227
AZD1208 + Trametinib; first compound 8 µM
  relative viability: 0.193
XMD14-99 + Foretinib; first compound 0.08 µM
  relative viability: 1.05
XMD14-99 + Foretinib; first compound 0.8 µM
  relative viability: 0.86
XMD14-99 + Foretinib; first compound 2.53 µM
  relative viability: 0.746
XMD14-99 + Foretinib; first compound 8 µM
  relative viability: 0.569
AZD1208 + Pictilisib; first compound 0.08 µM
  relative viability: 0.665
AZD1208 + Pictilisib; first compound 0.253 µM
  relative viability: 0.842
AZD1208 + Pictilisib; first compound 0.8 µM
  relative viability: 0.654
AZD1208 + Pictilisib; first compound 2.53 µM
  relative viability: 0.561
AZD1208 + Pictilisib; first compound 8 µM
  relative viability: 0.732
